Experimental data from ChEMBL document CHEMBL1671770, “Small molecule inhibition of protein depalmitoylation as a new approach towards downregulation of oncogenic Ras signalling” (Bioorg Med Chem, 2011).

Target: Acyl-protein thioesterase 1 (Homo sapiens, UniProt O75608)
Experiment: Inhibition of APT1

Sequence of Acyl-protein thioesterase 1 (O75608 whole entry): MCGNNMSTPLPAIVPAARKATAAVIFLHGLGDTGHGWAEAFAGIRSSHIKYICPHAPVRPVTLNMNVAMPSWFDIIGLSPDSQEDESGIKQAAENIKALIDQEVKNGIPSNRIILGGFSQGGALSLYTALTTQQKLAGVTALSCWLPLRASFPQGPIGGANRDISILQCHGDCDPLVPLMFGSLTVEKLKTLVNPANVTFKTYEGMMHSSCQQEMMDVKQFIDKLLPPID

CCCCCCCCCC[C@@H]1C(=O)O[C@H]1CCc1ccc(OC)c(OC)c1 [PALMOSTATIN B]
IC50: 670 nM
